This note sets out measurements from patent publication US20220298141A1, “ENZYME INHIBITORS” (KALVISTA PHARMACEUTICALS LIMITED, priority 2019, published 2022).

In one assay the target is T1, Human Factor XIIa (Homo sapiens, UniProt P00748).
T1 construct: purchased Enzyme Research Laboratories
T1 sequence (P00748 373-615 limits assumed): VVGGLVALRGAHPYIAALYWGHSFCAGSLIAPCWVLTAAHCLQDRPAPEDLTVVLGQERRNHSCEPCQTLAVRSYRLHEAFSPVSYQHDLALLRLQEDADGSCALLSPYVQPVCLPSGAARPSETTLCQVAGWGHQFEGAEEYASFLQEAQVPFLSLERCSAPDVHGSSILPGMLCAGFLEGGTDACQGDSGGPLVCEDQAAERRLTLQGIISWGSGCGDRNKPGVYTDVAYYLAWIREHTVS
T1 sequence (P00748 20-372 partner limits assumed): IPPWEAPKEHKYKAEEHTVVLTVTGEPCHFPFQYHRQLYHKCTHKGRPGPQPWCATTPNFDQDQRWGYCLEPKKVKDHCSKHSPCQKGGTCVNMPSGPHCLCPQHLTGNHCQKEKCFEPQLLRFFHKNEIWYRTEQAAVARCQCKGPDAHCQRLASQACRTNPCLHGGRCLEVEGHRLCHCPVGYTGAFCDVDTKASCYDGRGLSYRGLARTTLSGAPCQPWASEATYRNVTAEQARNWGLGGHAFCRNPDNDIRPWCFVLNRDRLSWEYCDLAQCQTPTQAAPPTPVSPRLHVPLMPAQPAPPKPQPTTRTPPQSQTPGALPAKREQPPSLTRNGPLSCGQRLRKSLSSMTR
As to the kind of experiment: Determination of Factor XIIa inhibitory activity in vitro (fluorogenic substrate H-DPro-Phe-Arg-AFC). It is filed as biochemical. The settings on record: Human Factor XIIa (Enzyme Research Laboratories), 25° C., read-out: Human FXIIa IC50. In outline:
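In vitro inhibition of human Factor XIIa (sourced from Enzyme Research Laboratories) was measured by incubating the enzyme at 25° C. with the fluorogenic substrate H-DPro-Phe-Arg-AFC across a range of test compound concentrations. The initial reaction rate, taken as residual enzyme activity, was followed by the […], and IC50 values were calculated.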

In another assay the target is T2, Human FXIa (Homo sapiens, UniProt P03951).
T2 construct: purchased Enzyme Research Laboratories
The assay can be described thus: Determination of FXIa inhibitory activity in vitro (fluorogenic substrate Z-Gly-Pro-Arg-AFC). It is filed as biochemical. The settings on record: Selectivity, Human FXIa (Enzyme Research Laboratories), 25° C.

A word on the IC50: it is the concentration at which inhibition is half-maximal.

SMILES strings stand for the structures.

T2 sequence (P03951 388-625 limits assumed): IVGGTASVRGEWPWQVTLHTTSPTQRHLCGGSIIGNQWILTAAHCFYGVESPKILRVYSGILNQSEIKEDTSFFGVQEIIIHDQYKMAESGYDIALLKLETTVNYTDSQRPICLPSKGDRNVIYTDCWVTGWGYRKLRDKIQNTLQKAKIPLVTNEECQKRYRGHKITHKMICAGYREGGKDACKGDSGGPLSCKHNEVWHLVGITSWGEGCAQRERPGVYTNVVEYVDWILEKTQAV
T2 sequence (P03951 19-387 partner limits assumed): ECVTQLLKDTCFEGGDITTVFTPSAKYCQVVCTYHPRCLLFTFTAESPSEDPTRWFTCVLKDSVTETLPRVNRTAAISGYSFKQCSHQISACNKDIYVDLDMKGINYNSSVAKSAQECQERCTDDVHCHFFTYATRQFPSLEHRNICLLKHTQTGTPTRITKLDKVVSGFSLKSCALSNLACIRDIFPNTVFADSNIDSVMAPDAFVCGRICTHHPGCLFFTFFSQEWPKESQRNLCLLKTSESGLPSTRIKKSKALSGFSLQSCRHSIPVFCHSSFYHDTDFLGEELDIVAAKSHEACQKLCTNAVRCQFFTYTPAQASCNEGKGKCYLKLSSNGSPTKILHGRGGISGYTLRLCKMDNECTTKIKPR

On to `Nc1nccc2cc(CNC(=O)c3cnc(OCCN4CCCCC4)c(Cl)c3)ccc12` [Example 13.26, N-((1-aminoisoquinolin-6-yl)methyl)-5-chloro-6-(2-(piperidin-1-yl)ethoxy)nicotinamide], for which the concentration for half-maximal inhibition (IC50) was 3 to 10 µM at Human Factor XIIa and above 40 µM on Human FXIa.

Regarding `CC(C)CN1CCC(CNc2ncc(Cl)cc2C(=O)NCc2ccc3c(N)nccc3c2)CC1` [Example 1.55], the IC50 at Human Factor XIIa is 0.3 to 1 µM; against Human FXIa, above 40 µM.

As to `CC(=O)NCCN1CCN(c2ncc(Cl)cc2C(=O)NCc2ccc3c(N)nccc3c2)CC1` [Example 16.05], the 50% inhibitory concentration (IC50) is 3 to 10 µM at Human Factor XIIa and above 40 µM on Human FXIa.

`CN1CCC(CNc2nccc(Cl)c2C(=O)NCc2ccc3c(N)nccc3c2)CC1` [Example 4.08]: the half-maximal inhibitory concentration (IC50) on Human Factor XIIa is 10 to 40 µM; against Human FXIa it was above 40 µM.

As for `CN1CCC(CNc2nccnc2C(=O)Nc2cccc3[nH]cc(Cl)c23)CC1` [Example 33.15], the half-inhibitory concentration (IC50) at Human Factor XIIa is 10 to 40 µM; on Human FXIa it was above 40 µM.

`Nc1nccc2cc(CNC(=O)c3cnc(OCCCN4CCCCC4)c(Cl)c3)ccc12` [Example 13.27]: the concentration for half-maximal inhibition (IC50) was 3 to 10 µM at Human Factor XIIa and above 40 µM against Human FXIa.

Turning to `CN1CCC(CNc2nccnc2C(=O)Nc2cnc3[nH]cc(Cl)c3c2)CC1` [Example 33.14], the IC50 was 10 to 40 µM on Human Factor XIIa and above 40 µM against Human FXIa.

`CN1CCC(CNc2nccnc2C(=O)Nc2ccc3nc[nH]c(=O)c3c2)CC1` [Example 33.03]: the results for the half-inhibitory concentration (IC50) on Human Factor XIIa and against Human FXIa were 10 to 40 µM and 20 µM, respectively.

For `CN1CCC(Nc2ncc(C(=O)NCc3ccc4c(N)nccc4c3)cc2Cl)CC1` [Example 11.33], the IC50 at Human Factor XIIa was 10 to 40 µM; against Human FXIa it was above 40 µM.

`Cn1cc(CN2CCC(CNc3ncc(Cl)cc3C(=O)NCc3ccc4c(N)nccc4c3)CC2)cn1` [Example 1.68]: the values for the IC50 at Human Factor XIIa and on Human FXIa were 0.3 to 1 µM and above 40 µM, respectively.

In the case of `CC(=O)N1CCC(CNc2ncc(Cl)cc2C(=O)NCc2ccc3c(N)nccc3c2)CC1` [Example 1.61], the results for the IC50 on Human Factor XIIa and against Human FXIa were 3 to 10 µM and above 40 µM, respectively.

With `CN1CCC(CNc2nccnc2C(=O)NCc2cc3c(N)nccc3s2)CC1` [Example 33.21], the figures for the IC50 at Human Factor XIIa and against Human FXIa were 3 to 10 µM and above 40 µM, respectively.

For the compound `CN1CCC(Nc2ncc(C(=O)NCc3ccc4c(N)nccc4c3)cc2Cl)CC1=O` (stereo not shown) [Example 11.35], the IC50 on Human Factor XIIa is 10 to 40 µM; at Human FXIa, above 40 µM.

As for `COc1ccc(C(=O)NCc2ccc3c(N)nccc3c2)c(NCC2CCN(C)CC2)n1` [Example 4.06], the figures for the IC50 on Human Factor XIIa and on Human FXIa were 1 to 3 µM and above 40 µM, respectively.

For the compound `Nc1nccc2cc(CNC(=O)c3cc(Cl)cnc3NCC3CCN(Cc4nccs4)CC3)ccc12` [Example 1.66], the IC50 at Human Factor XIIa is 3 to 10 µM; against Human FXIa it was above 40 µM.

For `Nc1nccc2cc(CNC(=O)c3cnc(NCCn4cncn4)c(Cl)c3)ccc12` [Example 11.31], the IC50 at Human Factor XIIa was 10 to 40 µM; against Human FXIa, above 40 µM.

As for `Nc1nccc2cc(CNC(=O)c3cc(Cl)cnc3N3CCN(c4ncccn4)CC3)ccc12` [Example 16.04], the results for the IC50 at Human Factor XIIa and against Human FXIa were 10 to 40 µM and above 40 µM, respectively.

Turning to `Nc1nccc2cc(CNC(=O)c3cc(Cl)cnc3NCC3CCN(CC4CC4)CC3)ccc12` [Example 1.56], the half-inhibitory concentration (IC50) is 0.3 to 1 µM on Human Factor XIIa and above 40 µM at Human FXIa.

As to `Nc1nccc2cc(CNC(=O)c3cc(Cl)cnc3NCc3ccccn3)ccc12` [Example 1.43], the IC50 on Human Factor XIIa is 3 to 10 µM; on Human FXIa it was above 40 µM.

Consider `CN1CCC(CNc2nccnc2C(=O)NCc2ccc3c(N)nccc3c2)CC1` [Example 4.03, N-((1-aminoisoquinolin-6-yl)methyl)-3-(((1-methylpiperidin-4-yl)methyl)amino)pyrazine-2-carboxamide], for which the half-maximal inhibitory concentration (IC50) is 0.3 to 1 µM at Human Factor XIIa and above 40 µM at Human FXIa.

Regarding `N#Cc1cccc(CNc2ncc(C(=O)NCc3ccc4c(N)nccc4c3)cc2Cl)c1` [Example 11.28], the half-inhibitory concentration (IC50) is 10 to 40 µM on Human Factor XIIa and above 40 µM against Human FXIa.

For `CN1CCC(CNc2nccnc2C(=O)Nc2ccc3c(c2)C(=O)NC3)CC1` [Example 33.02], the half-inhibitory concentration (IC50) at Human Factor XIIa was 10 to 40 µM; against Human FXIa, 20 µM.

As to `Nc1nccc2cc(CNC(=O)c3cnc(NC4CCN(c5nccs5)CC4)c(Cl)c3)ccc12` [Example 11.40], the figures for the IC50 on Human Factor XIIa and at Human FXIa were 10 to 40 µM and above 40 µM, respectively.

In the case of `CN1CCC(CNc2ncc(Br)cc2C(=O)NCc2ccc3c(N)nccc3c2)CC1` [Example 4.09], the half-maximal inhibitory concentration (IC50) at Human Factor XIIa is below 0.3 µM; against Human FXIa it was above 40 µM.

In the case of `CN1CCC(CNc2ncc(-c3cccnc3)cc2C(=O)NCc2ccc3c(N)nccc3c2)CC1` [Example 4.11, N-((1-aminoisoquinolin-6-yl)methyl)-6-(((1-methylpiperidin-4-yl)methyl)amino)-[3,3′-bipyridine]-5-carboxamide], the concentration for half-maximal inhibition (IC50) on Human Factor XIIa is 0.3 to 1 µM; against Human FXIa, above 40 µM.

For the compound `CN1CCC(CNc2nccnc2C(=O)NCc2ccc3ccnc(N)c3c2)CC1` [Example 33.16], the IC50 at Human Factor XIIa is 3 to 10 µM; at Human FXIa, above 40 µM.

As for `CN1CCC(CNc2ncc(-c3ccccc3)nc2C(=O)NCc2ccc3c(N)nccc3c2)CC1` [Example 4.18], the IC50 is 0.3 to 1 µM on Human Factor XIIa and 23.3 µM on Human FXIa.

Consider `COc1ccc(-n2cncn2)c(CNC(=O)c2nccnc2NCC2CCN(C)CC2)c1F` [Example 33.17], for which the IC50 on Human Factor XIIa was 10 to 40 µM; against Human FXIa, above 40 µM.

Regarding `CN1CCC(CNc2nccnc2C(=O)Nc2ccc3c(N)nccc3c2)CC1` [Example 33.07], the half-inhibitory concentration (IC50) at Human Factor XIIa was 10 to 40 µM; at Human FXIa, above 40 µM.

With `Nc1nccc2cc(CNC(=O)c3cc(Cl)cnc3NCC3CCN(C4CCCC4)CC3)ccc12` [Example 1.53], the concentration for half-maximal inhibition (IC50) is 0.3 to 1 µM on Human Factor XIIa and above 40 µM at Human FXIa.

In the case of `CN1CCC(CNc2nc(Cl)c(Cl)cc2C(=O)NCc2ccc3c(N)nccc3c2)CC1` [Example 4.19], the IC50 is below 0.3 µM at Human Factor XIIa and above 40 µM on Human FXIa.

With `CN1CCC(CNc2ncc(-c3cnn(C)c3)nc2C(=O)NCc2ccc3c(N)nccc3c2)CC1` [Example 4.20], the 50% inhibitory concentration (IC50) at Human Factor XIIa is 0.3 to 1 µM; against Human FXIa, 12.7 µM.

In the case of `Cn1nccc1CN1CCC(CNc2ncc(Cl)cc2C(=O)NCc2ccc3c(N)nccc3c2)CC1` [Example 1.67], the half-maximal inhibitory concentration (IC50) is 1 to 3 µM at Human Factor XIIa and above 40 µM at Human FXIa.

For the compound `CN1CCC(CNc2nc(-c3ccccc3)ccc2C(=O)NCc2ccc3c(N)nccc3c2)CC1` [Example 4.15], the figures for the half-maximal inhibitory concentration (IC50) on Human Factor XIIa and at Human FXIa were 1 to 3 µM and above 40 µM, respectively.

For `COCCN1CCC(CNc2ncc(Cl)cc2C(=O)NCc2ccc3c(N)nccc3c2)CC1` [Example 1.54, N-((1-aminoisoquinolin-6-yl)methyl)-5-chloro-2-(((1-(2-methoxyethyl)piperidin-4-yl)methyl)amino)nicotinamide], the results for the IC50 on Human Factor XIIa and against Human FXIa were 0.3 to 1 µM and above 40 µM, respectively.

`Nc1nccc2cc(CNC(=O)c3cnc(N4CCN(c5ccncc5)CC4)c(Cl)c3)ccc12` [Example 8.08]: the IC50 on Human Factor XIIa was 10 to 40 µM; against Human FXIa, above 40 µM.

As to `Nc1nccc2cc(CNC(=O)c3cc(Cl)cnc3NCC34CCN(CC3)CC4)ccc12` [Example 1.52], the IC50 on Human Factor XIIa is 0.3 to 1 µM; at Human FXIa, above 40 µM.

With `CC(=O)N1CCC(Nc2ncc(C(=O)NCc3ccc4c(N)nccc4c3)cc2Cl)CC1` [Example 11.39], the 50% inhibitory concentration (IC50) is 10 to 40 µM at Human Factor XIIa and above 40 µM against Human FXIa.
